Active and inactive are the calls of the source. The calls are words filed in the database; no cut-off is given here.
Key:
Assay type in all cases: protein assay
[1] = molecular target: T1, Alpha-1,2-mannosidase (BT_1878) (Bacteroides thetaiotaomicron) (UniProt Q8A6K3); experiment: Activity of Bacteroides thetaiotaomicron GH92 alpha-mannosidase GH92 alpha-mannosidase 1878 assessed as mannose release at 1 mM after 16 hrs by HPLC relative to untreated control after 16 hrs by HPLC
T1 sequence (whole entry): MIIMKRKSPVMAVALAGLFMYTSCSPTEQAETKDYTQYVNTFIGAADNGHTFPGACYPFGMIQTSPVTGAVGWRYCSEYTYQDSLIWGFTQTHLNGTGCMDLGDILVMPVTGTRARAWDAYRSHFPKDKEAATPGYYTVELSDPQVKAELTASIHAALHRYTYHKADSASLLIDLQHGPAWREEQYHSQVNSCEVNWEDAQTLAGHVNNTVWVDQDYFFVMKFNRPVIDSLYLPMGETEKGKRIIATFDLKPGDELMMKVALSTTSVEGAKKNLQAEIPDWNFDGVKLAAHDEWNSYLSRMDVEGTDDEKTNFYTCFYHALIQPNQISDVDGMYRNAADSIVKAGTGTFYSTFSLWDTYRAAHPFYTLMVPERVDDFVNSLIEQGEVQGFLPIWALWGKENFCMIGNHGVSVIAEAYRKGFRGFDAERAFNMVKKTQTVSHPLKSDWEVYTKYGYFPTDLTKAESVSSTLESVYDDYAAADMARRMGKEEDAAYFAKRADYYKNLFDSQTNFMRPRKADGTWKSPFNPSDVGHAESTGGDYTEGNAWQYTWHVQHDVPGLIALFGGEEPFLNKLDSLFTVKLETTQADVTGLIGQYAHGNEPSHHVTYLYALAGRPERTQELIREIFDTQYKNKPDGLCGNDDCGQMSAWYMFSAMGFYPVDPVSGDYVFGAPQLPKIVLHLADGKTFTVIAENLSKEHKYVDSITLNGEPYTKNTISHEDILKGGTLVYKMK

[2] = molecular target: T2, Alpha-1,2-mannosidase (BT_3784) (Bacteroides thetaiotaomicron) (UniProt Q8A182); experiment: Activity of Bacteroides thetaiotaomicron GH92 alpha-mannosidase GH92 alpha-mannosidase 3784 assessed as mannose release at 1 mM after 16 hrs by HPLC relative to untreated control after 16 hrs by HPLC
T2 sequence (whole entry): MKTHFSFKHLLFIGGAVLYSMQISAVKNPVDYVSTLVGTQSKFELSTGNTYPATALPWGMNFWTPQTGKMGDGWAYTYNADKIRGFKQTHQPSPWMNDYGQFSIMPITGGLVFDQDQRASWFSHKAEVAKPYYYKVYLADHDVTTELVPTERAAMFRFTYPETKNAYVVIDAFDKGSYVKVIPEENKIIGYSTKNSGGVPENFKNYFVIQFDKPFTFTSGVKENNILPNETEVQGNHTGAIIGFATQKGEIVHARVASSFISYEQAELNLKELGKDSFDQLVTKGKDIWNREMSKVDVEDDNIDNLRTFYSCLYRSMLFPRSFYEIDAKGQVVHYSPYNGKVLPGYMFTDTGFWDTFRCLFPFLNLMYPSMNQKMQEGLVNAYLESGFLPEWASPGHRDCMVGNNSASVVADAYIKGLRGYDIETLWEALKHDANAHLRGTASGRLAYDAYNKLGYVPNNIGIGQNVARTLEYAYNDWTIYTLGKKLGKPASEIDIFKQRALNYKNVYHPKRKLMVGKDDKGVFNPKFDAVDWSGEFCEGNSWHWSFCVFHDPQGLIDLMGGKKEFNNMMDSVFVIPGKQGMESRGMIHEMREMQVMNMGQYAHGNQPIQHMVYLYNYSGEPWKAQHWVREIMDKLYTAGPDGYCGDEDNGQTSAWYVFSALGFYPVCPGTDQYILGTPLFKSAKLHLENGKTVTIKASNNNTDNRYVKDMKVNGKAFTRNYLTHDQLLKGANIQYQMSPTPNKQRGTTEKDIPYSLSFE

[3] = molecular target: T3, Glycoside hydrolase family 92 (BT_3963) (Bacteroides thetaiotaomicron) (UniProt Q8A0Q8); experiment: Activity of Bacteroides thetaiotaomicron GH92 alpha-mannosidase GH92 alpha-mannosidase 3963 assessed as mannose release at 1 mM after 16 hrs by HPLC relative to untreated control after 16 hrs by HPLC
T3 sequence (whole entry): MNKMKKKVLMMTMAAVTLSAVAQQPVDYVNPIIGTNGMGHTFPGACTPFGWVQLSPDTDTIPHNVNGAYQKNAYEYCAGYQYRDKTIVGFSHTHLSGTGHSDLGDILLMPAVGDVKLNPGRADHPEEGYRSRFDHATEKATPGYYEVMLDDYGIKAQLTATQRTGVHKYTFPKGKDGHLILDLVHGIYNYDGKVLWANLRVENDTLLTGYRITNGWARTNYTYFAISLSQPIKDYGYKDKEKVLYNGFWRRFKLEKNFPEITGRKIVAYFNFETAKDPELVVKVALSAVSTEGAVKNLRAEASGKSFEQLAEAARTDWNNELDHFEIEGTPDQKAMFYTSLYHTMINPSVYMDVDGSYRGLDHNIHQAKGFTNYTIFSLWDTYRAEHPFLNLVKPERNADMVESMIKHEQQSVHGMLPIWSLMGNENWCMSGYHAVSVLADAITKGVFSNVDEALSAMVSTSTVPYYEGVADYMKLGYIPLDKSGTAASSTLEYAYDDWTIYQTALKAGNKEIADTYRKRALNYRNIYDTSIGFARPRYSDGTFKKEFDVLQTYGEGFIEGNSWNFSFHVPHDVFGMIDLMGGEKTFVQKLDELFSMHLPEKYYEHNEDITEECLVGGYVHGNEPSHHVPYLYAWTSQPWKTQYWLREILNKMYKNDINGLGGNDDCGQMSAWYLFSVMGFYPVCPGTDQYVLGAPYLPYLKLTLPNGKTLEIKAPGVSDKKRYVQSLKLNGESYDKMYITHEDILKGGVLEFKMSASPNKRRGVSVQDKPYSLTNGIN

Activity [1] [%]	Activity [2]	Activity [3]	Compound
4.5	100%	inactive	OC[C@H]1O[C@H](O[C@H]2[C@@H](O)[C@H](O)[C@@H](CO)O[C@@H]2O)[C@@H](O)[C@@H](O)[C@@H]1O
–	5.6%	inactive	OC[C@H]1O[C@H](O[C@@H]2[C@H](O)[C@@H](O)O[C@H](CO)[C@H]2O)[C@@H](O)[C@@H](O)[C@@H]1O
3.6	7.8%	inactive	OC[C@H]1O[C@H](O[C@H]2[C@H](O)[C@H](O)[C@@H](O)O[C@@H]2CO)[C@@H](O)[C@@H](O)[C@@H]1O
1.1	inactive	inactive	OC[C@H]1O[C@H](OC[C@H]2O[C@H](O)[C@@H](O)[C@@H](O)[C@@H]2O)[C@@H](O)[C@@H](O)[C@@H]1O
